Data as given in ChEMBL document CHEMBL5360554, “Optimization of the C2 substituents on the 1,4-bis(arylsulfonamido)naphthalene-N,N'-diacetic acid scaffold for better inhibition of Keap1-Nrf2 protein-protein interaction” (Eur J Med Chem, 2023).
Calls of active or inactive are those of the source. No cut-off for these calls is given here.

Key:
[1] = biological target: T1, Keap1/Nrf2 (Homo sapiens) (UniProt Q16236+Q14145); test: Inhibition of Keap1-Nrf2 protein-protein interaction in human NCM460D cells assessed as fold increase in NQO1 gene expression at 10 uM by RT-qPCR analysis; assay type: cell-based
T1 sequence (Q14145 whole entry, looked up): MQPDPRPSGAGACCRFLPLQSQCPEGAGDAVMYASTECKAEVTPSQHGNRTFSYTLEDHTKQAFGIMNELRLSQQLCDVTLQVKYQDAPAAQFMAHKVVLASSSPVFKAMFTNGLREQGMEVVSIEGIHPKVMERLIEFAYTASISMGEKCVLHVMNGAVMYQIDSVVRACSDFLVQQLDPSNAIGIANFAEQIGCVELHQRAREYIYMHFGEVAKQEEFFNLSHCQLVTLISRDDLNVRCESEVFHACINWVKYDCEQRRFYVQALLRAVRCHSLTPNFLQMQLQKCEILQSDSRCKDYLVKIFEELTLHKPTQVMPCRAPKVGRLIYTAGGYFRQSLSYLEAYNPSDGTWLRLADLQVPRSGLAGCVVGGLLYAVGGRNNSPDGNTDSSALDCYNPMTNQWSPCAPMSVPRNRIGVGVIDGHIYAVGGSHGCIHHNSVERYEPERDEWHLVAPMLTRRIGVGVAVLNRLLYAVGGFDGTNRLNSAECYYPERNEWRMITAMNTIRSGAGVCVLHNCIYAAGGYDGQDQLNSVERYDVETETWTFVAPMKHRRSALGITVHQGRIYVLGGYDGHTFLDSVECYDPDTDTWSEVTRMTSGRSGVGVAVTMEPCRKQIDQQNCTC
T1 sequence (Q16236 whole entry, looked up): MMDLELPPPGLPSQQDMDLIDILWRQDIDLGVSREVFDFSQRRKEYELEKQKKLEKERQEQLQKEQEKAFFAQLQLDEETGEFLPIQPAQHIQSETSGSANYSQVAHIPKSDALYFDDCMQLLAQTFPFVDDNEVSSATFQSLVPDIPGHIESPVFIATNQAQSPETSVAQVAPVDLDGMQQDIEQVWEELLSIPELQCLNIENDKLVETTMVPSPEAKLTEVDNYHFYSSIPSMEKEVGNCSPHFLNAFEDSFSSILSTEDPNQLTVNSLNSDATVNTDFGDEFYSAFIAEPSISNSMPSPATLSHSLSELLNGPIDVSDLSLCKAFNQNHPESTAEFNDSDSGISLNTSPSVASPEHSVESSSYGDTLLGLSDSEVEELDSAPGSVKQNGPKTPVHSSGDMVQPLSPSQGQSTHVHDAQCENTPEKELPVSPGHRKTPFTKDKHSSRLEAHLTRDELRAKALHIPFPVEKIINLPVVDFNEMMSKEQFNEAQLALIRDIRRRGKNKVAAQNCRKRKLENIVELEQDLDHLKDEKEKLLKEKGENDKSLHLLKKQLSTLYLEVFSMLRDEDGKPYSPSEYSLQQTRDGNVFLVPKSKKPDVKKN

[2] = biological target: T1, Keap1/Nrf2 (Homo sapiens); test: Inhibition of Keap1-Nrf2 protein-protein interaction in human NCM460D cells assessed as fold increase in HMOX1 gene expression at 10 uM by RT-qPCR analysis; assay type: cell-based
[3] = biological target: T2, Keap1/Nrf2 (Homo sapiens, UniProt Q14145); test: Inhibition of Keap1-Nrf2 protein-protein interaction (unknown origin) incubated for 34 mins by fluorescence polarization assay
T2 sequence (Q16236 whole entry): as the sequence (Q16236 whole entry, looked up) above
T2 sequence (Q14145 whole entry): as the sequence (Q14145 whole entry, looked up) above

[4] = biological target: T1, Keap1/Nrf2 (Homo sapiens); test: Inhibition of Keap1-Nrf2 protein-protein interaction in human NCM460D cells assessed as fold increase in GSTM3 gene expression at 10 uM by RT-qPCR analysis; assay type: cell-based
[5] = biological target: T1, Keap1/Nrf2 (Homo sapiens); test: Inhibition of Keap1-Nrf2 protein-protein interaction in human NCM460D cells assessed as increase in NQO1 gene expression at 100 uM by RT-qPCR analysis; assay type: cell-based
[6] = biological target: T2, Keap1/Nrf2; test: Inhibition of Keap1-Nrf2 protein-protein interaction (unknown origin) preincubated for 30 mins followed by Terbium labeled anti-His antibody addition for 30 mins prior to fluorescein labeled-9mer Nrf2 peptide addition and measured after 60 mins by TR-FRET assay
[7] = biological target: T1, Keap1/Nrf2 (Homo sapiens); test: Inhibition of Keap1-Nrf2 protein-protein interaction in human NCM460D cells assessed as increase in GSTM3 gene expression at 100 uM by RT-qPCR analysis; assay type: cell-based
[8] = biological target: T1, Keap1/Nrf2 (Homo sapiens); test: Inhibition of Keap1-Nrf2 protein-protein interaction in human NCM460D cells assessed as increase in HMOX1 gene expression at 100 uM by RT-qPCR analysis; assay type: cell-based
[9] = biological target: T1, Keap1/Nrf2 (Homo sapiens); test: Inhibition of Keap1-Nrf2 protein-protein interaction in human NCM460D cells assessed as fold increase in HMOX1 gene expression at 100 uM by RT-qPCR analysis; assay type: cell-based
[10] = biological target: T1, Keap1/Nrf2 (Homo sapiens); test: Inhibition of Keap1-Nrf2 protein-protein interaction in human NCM460D cells assessed as fold increase in GSTM3 gene expression at 100 uM by RT-qPCR analysis; assay type: cell-based
[11] = biological target: T1, Keap1/Nrf2 (Homo sapiens); test: Inhibition of Keap1-Nrf2 protein-protein interaction in human NCM460D cells assessed as fold increase in NQO1 gene expression at 100 uM by RT-qPCR analysis; assay type: cell-based

**Q.** With `COc1ccc(S(=O)(=O)N(CC(=O)O)c2cc(CCCN3C(=O)c4ccccc4C3=O)c(N(CC(=O)O)S(=O)(=O)c3ccc(OC)cc3)c3ccccc23)cc1` as the compound, how does the fold change (FC) [1] read?
**A.** 3

**Q.** And the fold change (FC) [2]?
**A.** 3

**Q.** And the IC50 [3]?
**A.** 0.077 µM

**Q.** And the fold change (FC) [4]?
**A.** 3

**Q.** And the inhibition [5]?
**A.** Active

**Q.** And the IC50 [6]?
**A.** 0.0025 µM

**Q.** What about the Ki [6] of the same compound?
**A.** < 0.0001 µM

**Q.** What about the inhibition [7] of the same compound?
**A.** Active

**Q.** And the “HMOX1 gene expression increase (active/not active)” value [8]?
**A.** Active

**Q.** Which results are given for `COc1ccc(S(=O)(=O)N(CC(=O)O)c2cc(CCC(=O)N3CCOCC3)c(N(CC(=O)O)S(=O)(=O)c3ccc(OC)cc3)c3ccccc23)cc1`?
**A.** IC50 [3]: 0.087 µM; inhibition [5]: Active; IC50 [6]: 0.0069 µM; Ki [6]: 0.002 µM; inhibition [7]: Active; HMOX1 gene expression increase (active/not active) [8]: Active

**Q.** How did the IC50 [3] turn out when `COc1ccc(S(=O)(=O)N(CC(=O)O)c2cc(CCC(N)=O)c(N(CC(=O)O)S(=O)(=O)c3ccc(OC)cc3)c3ccccc23)cc1` was run?
**A.** 0.108 µM

**Q.** And the IC50 [6]?
**A.** 0.0117 µM

**Q.** What about the Ki [6] of the same compound?
**A.** 0.0042 µM

**Q.** Which results are given for `COc1ccc(S(=O)(=O)N(CC(=O)O)c2cc(CCC(=O)NC(C)C)c(N(CC(=O)O)S(=O)(=O)c3ccc(OC)cc3)c3ccccc23)cc1`?
**A.** IC50 [3]: 0.102 µM; IC50 [6]: 0.0126 µM; Ki [6]: 0.0046 µM

**Q.** With `COc1ccc(S(=O)(=O)N(CC(=O)O)c2cc(-c3ccccc3)c(N(CC(=O)O)S(=O)(=O)c3ccc(OC)cc3)c3ccccc23)cc1` as the compound, how does the IC50 [3] read?
**A.** 0.096 µM

**Q.** What about the IC50 [6] of the same compound?
**A.** 0.0077 µM

**Q.** What about the Ki [6] of the same compound?
**A.** 0.0024 µM

**Q.** With `COc1ccc(S(=O)(=O)N(CC(=O)O)c2cc(CCCN(C)Cc3ccccc3)c(N(CC(=O)O)S(=O)(=O)c3ccc(OC)cc3)c3ccccc23)cc1` as the compound, how does the IC50 [6] read?
**A.** 0.0736 µM

**Q.** What about the Ki [6] of the same compound?
**A.** 0.0329 µM

**Q.** How did the IC50 [3] turn out when `COc1ccc(S(=O)(=O)N(CC(=O)O)c2cc(Sc3ccccc3)c(N(CC(=O)O)S(=O)(=O)c3ccc(OC)cc3)c3ccccc23)cc1` was run?
**A.** 0.085 µM

**Q.** And the IC50 [6]?
**A.** 0.0058 µM

**Q.** And the Ki [6]?
**A.** 0.0015 µM

**Q.** For `COc1ccc(-c2cc(N(CC(=O)O)S(=O)(=O)c3ccc(OC)cc3)c3ccccc3c2N(CC(=O)O)S(=O)(=O)c2ccc(OC)cc2)cc1`, which fold change (FC) [9] is on record?
**A.** 8

**Q.** What about the IC50 [3] of the same compound?
**A.** 0.085 µM

**Q.** And the inhibition [5]?
**A.** Active

**Q.** And the IC50 [6]?
**A.** 0.0131 µM

**Q.** What about the Ki [6] of the same compound?
**A.** 0.0049 µM

**Q.** And the inhibition [7]?
**A.** Active

**Q.** What about the fold change (FC) [10] of the same compound?
**A.** 8

**Q.** What about the “HMOX1 gene expression increase (active/not active)” value [8] of the same compound?
**A.** Active

**Q.** And the fold change (FC) [11]?
**A.** 8

**Q.** `COc1ccc(S(=O)(=O)N(CC(=O)O)c2cc(-c3ccc(N4C(=O)c5ccccc5C4=O)cc3)c(N(CC(=O)O)S(=O)(=O)c3ccc(OC)cc3)c3ccccc23)cc1` was tested. Which fold change (FC) [1] did it give?
**A.** 3

**Q.** What about the fold change (FC) [2] of the same compound?
**A.** 3

**Q.** And the IC50 [3]?
**A.** 0.09 µM

**Q.** And the fold change (FC) [4]?
**A.** 3

**Q.** What about the inhibition [5] of the same compound?
**A.** Active

**Q.** And the IC50 [6]?
**A.** 0.0071 µM

**Q.** What about the Ki [6] of the same compound?
**A.** 0.0021 µM

**Q.** What about the inhibition [7] of the same compound?
**A.** Active

**Q.** And the “HMOX1 gene expression increase (active/not active)” value [8]?
**A.** Active

**Q.** `COc1ccc(S(=O)(=O)N(CC(N)=O)c2cc(CCC(=O)O)c(N(CC(N)=O)S(=O)(=O)c3ccc(OC)cc3)c3ccccc23)cc1` was tested. Which IC50 [3] did it give?
**A.** 0.162 µM

**Q.** What about the IC50 [6] of the same compound?
**A.** 0.0227 µM

**Q.** And the Ki [6]?
**A.** 0.0093 µM

**Q.** How did the IC50 [3] turn out when `COc1ccc(S(=O)(=O)N(CC(=O)O)c2cc(-c3ccc(C#N)cc3)c(N(CC(=O)O)S(=O)(=O)c3ccc(OC)cc3)c3ccccc23)cc1` was run?
**A.** 0.117 µM

**Q.** And the inhibition [5]?
**A.** inactive

**Q.** What about the IC50 [6] of the same compound?
**A.** 0.0092 µM

**Q.** And the Ki [6]?
**A.** 0.0031 µM

**Q.** And the inhibition [7]?
**A.** inactive

**Q.** And the “HMOX1 gene expression increase (active/not active)” value [8]?
**A.** inactive
